Assay in all cases: relative viability (nuclei count vs DMSO), 5 days (fraction); higher = more cells survive
Compound in assay [1]: O=C(Nc1cc(C(F)(F)F)cc(C(F)(F)F)c1)c1cc(Cl)ccc1O [IMD-0354] + CC(=O)c1c(C)c2cnc(Nc3ccc(N4CCNCC4)cn3)nc2n(C2CCCC2)c1=O [Palbociclib] (partner 0.5 µM)
The procedure, abridged:
(§1)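 Relative viability divides the nuclei count in treated wells by that in vehicle wells. Lung cancer cell lines were seeded in 1536-well plates, dosed by pin tool the next day, and fixed and stained after 5 days in one step with final 0.05% Triton X-100, 1% formaldehyde and 1 ug/ml Hoechst. Dosing was a single drug or a fixed anchor-drug dose plus five library-drug doses (not always all listed) in √10 steps, and values are medians of duplicate plates imaged at 4×.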

Compound in assay [2]: O=C(Nc1cc(C(F)(F)F)cc(C(F)(F)F)c1)c1cc(Cl)ccc1O [IMD-0354] + N=C(N)NC(=N)NCCc1ccccc1 [Phenformin] (partner 250 µM)
In a few lines:
as §1

Compound in assay [3]: O=C(Nc1cc(C(F)(F)F)cc(C(F)(F)F)c1)c1cc(Cl)ccc1O [IMD-0354] + Cc1cc(Nc2cc(N3CCN(C)CC3)nc(Sc3ccc(NC(=O)C4CC4)cc3)n2)n[nH]1 [Tozasertib] (partner 0.1 µM)
In a few lines:
as §1

Compound in assay [4]: O=C(Nc1cc(C(F)(F)F)cc(C(F)(F)F)c1)c1cc(Cl)ccc1O [IMD-0354] + Cc1nc(NC(=O)N2CCC[C@H]2C(N)=O)sc1-c1ccnc(C(C)(C)C(F)(F)F)c1 [Alpelisib] (partner 2 µM)
The procedure, abridged: as §1

In the case of RERF-LC-KJ, the relative viability in assay [1] (first compound 0.04 µM) was 1.29; in assay [1] (first compound 0.1265 µM), 1.1; in assay [1] (first compound 0.4 µM) it was 0.776; in assay [1] (first compound 1.265 µM), 0.642; in assay [1] (first compound 4 µM), 0.19; in assay [2] (first compound 0.04 µM) it was 0.478. The relative viability in assay [2] (first compound 0.1265 µM) came out at 0.423; in assay [2] (first compound 0.4 µM), 0.337; in assay [2] (first compound 1.265 µM), 0.289; in assay [2] (first compound 4 µM) it was 0.207; in assay [3] (first compound 0.04 µM), 0.565; in assay [3] (first compound 0.1265 µM), 0.644. For the same cell line, the relative viability worked out at 0.411 in assay [3] (first compound 0.4 µM); 0.274 in assay [3] (first compound 1.265 µM); 0.265 in assay [3] (first compound 4 µM); 0.823 in assay [4] (first compound 0.04 µM); 0.71 in assay [4] (first compound 0.1265 µM); 0.586 in assay [4] (first compound 0.4 µM). Also, the results for the relative viability in assay [4] (first compound 1.265 µM) and in assay [4] (first compound 4 µM) were 0.404 and 0.303, respectively.

With SK-LU-1, the relative viability in assay [1] (first compound 0.04 µM) was 0.398; in assay [1] (first compound 0.1265 µM) it was 0.394; in assay [1] (first compound 0.4 µM), 0.319; in assay [1] (first compound 1.265 µM), 0.239; in assay [1] (first compound 4 µM), 0.296; in assay [2] (first compound 0.04 µM) it was 0.713. For the same cell line, the relative viability in assay [2] (first compound 0.1265 µM) stood at 0.413; in assay [2] (first compound 0.4 µM), 0.303; in assay [2] (first compound 1.265 µM) it was 0.193; in assay [2] (first compound 4 µM), 0.187; in assay [3] (first compound 0.04 µM), 0.308; in assay [3] (first compound 0.1265 µM), 0.349. Further, the relative viability was determined as 0.304 in assay [3] (first compound 0.4 µM); 0.2 in assay [3] (first compound 1.265 µM); 0.189 in assay [3] (first compound 4 µM); 1.39 in assay [4] (first compound 0.04 µM); 0.658 in assay [4] (first compound 0.1265 µM); 0.472 in assay [4] (first compound 0.4 µM). Also, the results for the relative viability in assay [4] (first compound 1.265 µM) and in assay [4] (first compound 4 µM) were 0.174 and 0.215, respectively.

As for SK-MES-1, the relative viability was found to be 0.337 in assay [1] (first compound 0.04 µM); 0.286 in assay [1] (first compound 0.1265 µM); 0.317 in assay [1] (first compound 0.4 µM); 0.232 in assay [1] (first compound 1.265 µM); 0.221 in assay [1] (first compound 4 µM); 0.747 in assay [2] (first compound 0.04 µM). Besides, the relative viability in assay [2] (first compound 0.1265 µM) was 0.583; in assay [2] (first compound 0.4 µM) it was 0.422; in assay [2] (first compound 1.265 µM), 0.356; in assay [2] (first compound 4 µM), 0.241; in assay [3] (first compound 0.04 µM), 1.14; in assay [3] (first compound 0.1265 µM), 0.873. In addition, the relative viability is 0.543 in assay [3] (first compound 0.4 µM); 0.287 in assay [3] (first compound 1.265 µM); 0.215 in assay [3] (first compound 4 µM); 0.976 in assay [4] (first compound 0.04 µM); 0.834 in assay [4] (first compound 0.1265 µM); 0.598 in assay [4] (first compound 0.4 µM). Moreover, the relative viability is 0.283 in assay [4] (first compound 1.265 µM) and 0.285 in assay [4] (first compound 4 µM).

As to SW 1573, the relative viability is 0.533 in assay [1] (first compound 0.04 µM); 0.315 in assay [1] (first compound 0.1265 µM); 0.237 in assay [1] (first compound 0.4 µM); 0.147 in assay [1] (first compound 1.265 µM); 0.121 in assay [1] (first compound 4 µM); 0.397 in assay [2] (first compound 0.04 µM). Further, the relative viability in assay [2] (first compound 0.1265 µM) amounted to 0.265; in assay [2] (first compound 0.4 µM), 0.18; in assay [2] (first compound 1.265 µM), 0.0898; in assay [2] (first compound 4 µM), 0.103; in assay [3] (first compound 0.04 µM), 0.182; in assay [3] (first compound 0.1265 µM) it was 0.16. Also, the relative viability in assay [3] (first compound 0.4 µM) is 0.175; in assay [3] (first compound 1.265 µM), 0.0971; in assay [3] (first compound 4 µM), 0.0737; in assay [4] (first compound 0.04 µM), 0.768; in assay [4] (first compound 0.1265 µM), 0.788; in assay [4] (first compound 0.4 µM), 0.328. Moreover, the relative viability in assay [4] (first compound 1.265 µM) worked out at 0.202; in assay [4] (first compound 4 µM) it was 0.15.

Turning to UMC-11, the relative viability in assay [1] (first compound 0.04 µM) was found to be 0.344; in assay [1] (first compound 0.1265 µM), 0.303; in assay [1] (first compound 0.4 µM) it was 0.323; in assay [1] (first compound 1.265 µM) it was 0.215; in assay [1] (first compound 4 µM), 0.18; in assay [2] (first compound 0.04 µM) it was 0.321. For the same cell line, the relative viability in assay [2] (first compound 0.1265 µM) was 0.229; in assay [2] (first compound 0.4 µM), 0.202; in assay [2] (first compound 1.265 µM), 0.167; in assay [2] (first compound 4 µM), 0.181; in assay [3] (first compound 0.04 µM), 0.202; in assay [3] (first compound 0.1265 µM), 0.219. Further, the relative viability was determined as 0.187 in assay [3] (first compound 0.4 µM); 0.182 in assay [3] (first compound 1.265 µM); 0.203 in assay [3] (first compound 4 µM); 0.945 in assay [4] (first compound 0.04 µM); 0.973 in assay [4] (first compound 0.1265 µM); 0.598 in assay [4] (first compound 0.4 µM). Also, the figures for the relative viability in assay [4] (first compound 1.265 µM) and in assay [4] (first compound 4 µM) were 0.235 and 0.281, respectively.

These data come from the supplement of paper PMC10307832.
